Data on four molecules can be found in patent US9676715B2, “Bis-indolic derivatives, a process for preparing the same and their uses as a drug” (UNIVERSITE JOSEPH FOURIER, priority 2011, dated 2017).

≈ marks a conversion by molar mass, not a printed value. Bounds are passed on as bounds.

For assay [1], the system named is S. aureus ATCC 33592 (MRSA). In words: MIC, microdilution method (9.1). The class given is cell-based, Staphylococcus aureus. The conditions noted are these: Staphylococcus aureus, read after 18 h, read-out: MIC. In short, it runs like this:
(§1)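 MIC read from two-fold dilution series (0.50-128 mg/L final) in Mueller Hinton broth, following the CLSI M07-A8 microdilution procedure. Inoculum was 5×10^5 CFU/ml final, with incubation at 37° C. under ambient air.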

Assay [2] relates to S. aureus ATCC 25923. The experiment in a line: MIC, microdilution method (9.1). Format: cell-based, Staphylococcus aureus. The conditions noted are these: Staphylococcus aureus, ATCC25923, read after 18 h, read-out: MIC. In short, it runs like this: as §1
Assay [3] concerns S. aureus ATCC 9144. In words: MIC, microdilution method (9.1). The class given is cell-based, Staphylococcus aureus. Conditions: Staphylococcus aureus, ATCC9144, read after 18 h, read-out: MIC. In short, it runs like this: as §1
Assay [4] deals with S. aureus CIP 65.6. The experiment in a line: MIC, microdilution method (9.1). Format: cell-based, Staphylococcus aureus. The conditions noted are these: Staphylococcus aureus, CIP65, read after 18 h, read-out: MIC. In short, it runs like this:
as §1

The subject of assay [5] is Staphylococcus sciuri ATCC 29061. In words: MIC, Staphylococcus panel (9.2). The class given is cell-based. The conditions noted are these: Mammaliicoccus sciuri, ATCC29061; S. sciuri ATCC 29061; 4% DMSO, 18 h. As to the method:
(§2) The microdilution method recommended by the Clinical and Laboratory Standard Institute [M07-A9, Vol. 32, N° 2] was used. The activity of bis-indolic compounds 3f and 4 was tested against 35 Staphylococcus bacterial strains corresponding to 12 different species,
(§3) Bacterial inocula were prepared in Mueller Hinton broth (MH2, BioMérieux, Marcy L'Etoile, France). They were dispensed in 96 well microtiter plates (5×10^5 CFU/ml of final inoculum, 192 μL per well). Indolic compounds diluted in pure DMSO (8 μL per well, concentrated 25 times) were added to the wells as to obtain two-fold serial concentrations (0.5-32 mg/L of final concentrations). The final concentration of DMSO was 4% in each well.
(§4) To avoid cross-contaminations in microtiter plates, one row was left blank between each strain tested. Microplates were incubated for 18 h at 37° C. in ambient air. Then MICs were read visually and, in case of visual reading difficulties, confirmed using a spectrophotometer at a wavelength of 630 nm (BioTek® EL808 Absorbance Microplate Reader). MICs corresponded to the minimum bis-indolic compound concentration that allowed complete visual growth inhibition of bacteria. Drug-free cultures served as growth controls.
(§5) Coagulase-negative Staphylococcus strains included three reference strains purchased from CRBIP: a methicillin-susceptible S. epidermidis strain (ATCC 12228), a methicillin-resistant S. epidermidis strain (ATCC 49461), and a methicillin-susceptible S. sciuri strain (ATCC 29061). We also used clinical strains belonging to the following coagulase-negative Staphylococcus species: S. auricularis (two strains), S. warneri (five strains), S. capitis (five strains), S. haemolyticus (four strains), S. hominis (seven strains), S. cohnii (two strains), and S. saprophyticus, S. caprae and S. simulans (one strain each). Identification of the clinical strains was obtained using VITEK® 2 System (Biomérieux). The specified strain numbers correspond to an internal number of the bacterial strain collection of our laboratory.

In assay [6] the test system is Staphylococcus haemolyticus (CHUG-Shae1). In words: MIC, Staphylococcus panel (9.2). The class given is cell-based. The conditions noted are these: S. haemolyticus CHUG-Shae1, 4% DMSO, 18 h. As to the method: as §2, §3, §4, §5
In assay [7] the test system is Staphylococcus capitis (CHUG-Scap1). In words: MIC, Staphylococcus panel (9.2). The class given is cell-based. Conditions: S. capitis CHUG-Scap1, 4% DMSO, 18 h. The method, then:
as §2, §3, §4, §5

The test system of assay [8] is Staphylococcus auricularis (CHUG-Saur1). In words: MIC, Staphylococcus panel (9.2). Format: cell-based. The conditions noted are these: S. auricularis CHUG-Saur1, 4% DMSO, 18 h. As to the method:
as §2, §3, §4, §5

Assay [9] has as its system Staphylococcus warneri (CHUG-Swar1). The experiment in a line: MIC, Staphylococcus panel (9.2). The class given is cell-based. The conditions noted are these: S. warneri CHUG-Swar1, 4% DMSO, 18 h. As to the method:
as §2, §3, §4, §5

Assay [10] relates to Staphylococcus epidermidis ATCC 49461. In words: MIC, Staphylococcus panel (9.2). Format: cell-based. Conditions: ATCC49461, S. epidermidis ATCC 49461, 4% DMSO, 18 h. As to the method:
as §2, §3, §4, §5

Assay [11] relates to Staphylococcus hominis (CHUG-Shom1). In words: MIC, Staphylococcus panel (9.2). The class given is cell-based. The conditions noted are these: S. hominis CHUG-Shom1, 4% DMSO, 18 h. The method, then: as §2, §3, §4, §5
In assay [12] the test system is Staphylococcus epidermidis ATCC 12228. The experiment in a line: MIC, Staphylococcus panel (9.2). The class given is cell-based. Conditions: ATCC12228, S. epidermidis ATCC 12228, 4% DMSO, 18 h. As to the method: as §2, §3, §4, §5
The test system of assay [13] is Staphylococcus aureus SA-1199B (NorA). In words: MIC, Staphylococcus panel (9.2). The class given is cell-based. Conditions: 18 h. As to the method: as §2, §3, §4
(§6) Four Staphylococcus aureus strains were used. Two reference strains were provided by the French reference center for Staphylococcus spp. (Lyon, France), including one methicillin-susceptible (MSSA 476) and one methicillin-resistant (MRSA 252) S. aureus strains. The two remaining S. aureus strains were purchased from the CRBIP (Centre de Ressources Biologiques de l'Institut Pasteur): a vancomycin-intermediate strain (ATCC 106414) and a S. aureus strain (SA-1199B) resistant to fluoroquinolones due to overexpression of the NorA multidrug efflux pump.

Assay [14] relates to Staphylococcus aureus MRSA 252. The experiment in a line: MIC, Staphylococcus panel (9.2). The class given is cell-based. Conditions: 18 h. The method, then: as §2, §3, §4, §6
The subject of assay [15] is Staphylococcus aureus MSSA 476. The experiment in a line: MIC, Staphylococcus panel (9.2). Format: cell-based. Conditions: S. aureus MSSA 476, 4% DMSO, 18 h. As to the method:
as §2, §3, §4, §6

Assay [16] concerns S. pneumoniae ATCC 6303. In words: MIC, microdilution method (9.1). Conditions: Streptococcus pneumoniae, ATCC6303, 10% sheep blood, 5% CO2, 18 h, read-out: MIC. Format: cell-based, Streptococcus pneumoniae. The procedure, abridged: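 CLSI broth microdilution in Mueller Hinton broth, final inoculum 5×10^5 CFU/ml, with two-fold compound dilutions (0.50-128 mg/L final). Incubation at 37° C in ambient air, or 5% CO2 with 10% sheep blood for fastidious species.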

Assay [17] concerns S. pyogenes (group A) CIP 104226. The experiment in a line: MIC, microdilution method (9.1). The class given is cell-based, Streptococcus pyogenes. Conditions: Streptococcus pyogenes, CIP104226, 18 h, read-out: MIC. The procedure, abridged: as §1

As to `CC(NC(=O)c1c[nH]c2ccc(Br)cc12)c1c[nH]c2ccc(Br)cc12` (centres unmarked) [Compound 4, 5-Bromo-N-(1-(5-bromo-1H-indol-3-yl)ethyl)-1H-indole-3-carboxamide], the MIC in assay [1], in assay [2], in assay [3], in assay [4], in assay [5] and in assay [6] was 2 µg/mL (≈ 4.34 µM) each time. Further, the MIC in assay [7] came out at 2 µg/mL (≈ 4.34 µM); in assay [8], 1 µg/mL (≈ 2.17 µM); in assay [9], 1 µg/mL (≈ 2.17 µM); in [10], 1 µg/mL (≈ 2.17 µM); in [11], 1 µg/mL (≈ 2.17 µM); in [12], 1 µg/mL (≈ 2.17 µM). Moreover, the MIC in assay [13] worked out at 2 µg/mL (≈ 4.34 µM); in [14] it was 2 µg/mL (≈ 4.34 µM); in assay [15], 1 µg/mL (≈ 2.17 µM).
Turning to `CC(C)(C)OC(=O)NCC(NC(=O)c1c[nH]c2ccc(Br)cc12)c1c[nH]c2ccc(Br)cc12` (centres unmarked) [Compound 3f, tert-Butyl(2-(5-bromo-1H-indol-3-yl)-2-(5-bromo-1H-indolyl-3-carboxamido)ethyl)carbamate], the MIC in assay [1] was found to be 2 µg/mL (≈ 3.47 µM); in [2], 1 µg/mL (≈ 1.74 µM); in assay [3], 1 µg/mL (≈ 1.74 µM); in assay [4], 1 µg/mL (≈ 1.74 µM); in assay [5] it was 4 µg/mL (≈ 6.94 µM); in assay [6], 4 µg/mL (≈ 6.94 µM). Further, the MIC stood at 4 µg/mL (≈ 6.94 µM) in assay [7]; 2 µg/mL (≈ 3.47 µM) in [8]; 2 µg/mL (≈ 3.47 µM) in assay [9]; 2 µg/mL (≈ 3.47 µM) in assay [10]; 4 µg/mL (≈ 6.94 µM) in assay [11]; 2 µg/mL (≈ 3.47 µM) in assay [12]. In addition, the MIC is 32 µg/mL (≈ 55.5 µM) in [16]; 2 µg/mL (≈ 3.47 µM) in assay [13]; 2 µg/mL (≈ 3.47 µM) in assay [14]; 2 µg/mL (≈ 3.47 µM) in [15]; 32 µg/mL (≈ 55.5 µM) in [17].
Consider `Cn1cc(C(=O)NC(CNC(=O)OC(C)(C)C)c2c[nH]c3ccc(Br)cc23)c2cc(Br)ccc21` (centres unmarked) [Compound 7, tert-Butyl (2-(5-bromo-1-methyl-1H-indole-3-carboxamido)-2-(5-bromo-1H-indol-3-yl)ethyl) carbamate], for which the MIC in [1], in assay [2], in assay [3], in assay [4], in assay [16] and in assay [17] was > 128 µg/mL throughout.
Turning to `NCCCCNC(=O)C(NC(=O)c1c[nH]c2ccc(Br)cc12)c1c[nH]c2ccc(Br)cc12` (centres unmarked) [Compound 16, N-(2-((4-Aminobutyl)amino)-1-(5-bromo-1H-indol-3-yl)-2-oxoethyl)-5-bromo-1H-indole-3-carboxamide], the minimum inhibitory concentration (MIC) was 8 µg/mL (≈ 14.3 µM) in [1]; 8 µg/mL (≈ 14.3 µM) in assay [2]; 8 µg/mL (≈ 14.3 µM) in assay [3]; 8 µg/mL (≈ 14.3 µM) in [4]; > 128 µg/mL in [16]; > 128 µg/mL in assay [17].
